In patent publication US6368793B1, “Metabolic selection methods” (MicroGenomics, Inc., priority 1998, dated 2002):

Experiments:
Assay type in all cases: cell-based
Klebsielia oxytoca = experiment: Compound utilization of environmental isolates (growth on minimal medium); conditions: Kelbsiella oxytoca isolate
Description: Samples from diverse natural environments were collected to use for the isolation of microbes that can utilize ascorbic acid (AsA) as the sole carbon source. No bacterial species has previously been reported to grow on AsA minimal medium.
Environmental samples were collected from freshwater lakes, lemon and orange orchards, residential backyard soils, human and animal solid wastes.
Over 100 microbial isolates, capable of forming visible colonies within 20 hours of incubation at 30° C. on M9 minimal medium containing 0.5% AsA, were selected from these samples. These 100 isolates were then screened for their ability to grow on 2-Keto-L-Gulonate (2-KLG) minimal medium.
Thus, Kelbsiella oxytoca was retained as a candidate for genetic engineering of a host strain that can use AsA under controlled conditions for the selection of cloned microbial pathways from 2-KLG to AsA.

[1] = tested on: K. oxytoca strain MGK003 cosmid clones; experiment: Growth of selected cosmid library clones of MGK003 on 2-KLG with or without IPTG; conditions: within 20 h at 37° C.
Description: Prior to transfection of K. oxytoca strain MGK003 with the packaging mixture, the tester strain was transformed with plasmid pCB382 expressing the E. coli lamB gene that functions as λ receptor, which appears to be absent or non-functional in most Klebsiella strains (De Vries, G. E., et al., 1984. Proc. Natl. Acad. Sci. USA 81:6080-6084). The resulting MGK003 [λ^s] strain was transfected with the packaged products as follows:
6. The remainder was centrifuged at 3000 g for 5 min and was resuspended in 1 mL of M9 minimal medium supplemented with 10 μM IPTG (IPTG concentration can be varied up to 100 μM), and aliquots (200 μL) were plated on M9 plates containing 0.5% 2-KLG and 50 μM IPTG. 7.
Plates were incubated at 37° C. for 36 h for selecting candidate pathways that would convert 2-KLG to AsA. (Alternatively, selection can be done at 30° C.)
Among 500,000 clones to which a first selection round was applied, approximately 100 colonies of various sizes appeared on 2-KLG/IPTG plates. These were re-streaked on: (i) LB-kanamycin to verify the presence of the cosmid vector; (ii) 2-KLG/IPTG; and (iii) 2-KLG lacking IPTG to determine if growth of the positive clones on 2-KLG was dependent upon the expression of AsA catabolism. […]

K. oxytoca strain MGK003 = experiment: Growth of tester strain MGK003 on AsA minimal medium with or without IPTG
Excerpt: To engineer K. oxytoca as a host strain for the selection of biocatalysts which produce AsA, the promoter of the yiaK-S operon was replaced with a DNA fragment that contained the trp-lac hybrid promoter of transcription, the lacO operator, and the lacI^q repressor gene (Brosius, J. 1992. Meth. Enzymol. 216:469-483). This allows the yiaK-S operon, and therefore AsA catabolism, to be turned ON and OFF in a tightly controlled manner in the presence or absence of IPTG, a non-metabolizable inducer of the lac promoter. Practically, a 5-way ligation was set up among: (i) the pMAK705 integration vector which carries a chloramphenicol resistance marker and the thermosensitive origin of replication from plasmid […] (Hamilton, C. M., et al., 1989. J. Bacteriol. 171:4617-4622); (ii) a 0.8 kb fragment containing the 5′ region of the yiaJ gene and its promoter sequences; (iii) the spectinomycin resistance marker retrieved from Staphylococcus aureus Tn554 (Murphy, E. 1985. Mol. Gen. Genet. 200:33-39) to follow integration events; (iv) the lacI^q-lacO-trc promoter fragment retrieved from pSE380 (InVitrogen, Carlsbad, Calif.); and (v) a 1 kb fragment containing the 5′ end of yiaK, including its ribosome binding site for translation initiation while excluding the promoter sequences of the yiaK-S operon (FIG. 10). […]

Compound | Utilization as sole source of carbon and energy / growth (Klebsielia oxytoca) | Growth of two retained clones ([1]; 2-KLG without IPTG) | Growth of two retained clones ([1]; 2-KLG/IPTG) | Growth on M9 minimal medium (K. oxytoca strain MGK003; MGK003, AsA 0.25% and IPTG 10 to 100 μM) | Growth on M9 minimal medium (K. oxytoca strain MGK003; MGK003, AsA 0.25%, lacking IPTG)
O=C(O)C(=O)[C@@H](O)[C@H](O)[C@@H](O)CO [2-KLG, 2-keto-L-gulonate] | could not grow on 2-KLG | not on 2-KLG without IPTG | grew | – | –
O=C1O[C@H]([C@@H](O)CO)C(O)=C1O [AsA, ascorbic acid] | could utilize AsA as its sole source of carbon and energy | – | – | able to grow | no growth
